Assays:
TCCSUP cells = assay: Intracellular cisplatin measurements using CyTOF in TCCSUP cells; assay type: cell-based, human
Experimental: To validate the role of LRRC8D in cisplatin import, intracellular cisplatin was measured in the TCCSUP cells. […] In contrast to the KU1919, 5637, and T24 cells (FIGS. 12C-12E), NPEPPS knockdown had very little effect on the GemCis-resistant cells (median Pt 195=28) (FIGS. 12I-12J) given that the TCCSUP-GemCis cells have a focal deletion of LRRC8D (FIGS. 9A-9B). However, when LRRC8D was overexpressed, cisplatin import was restored to the levels of the parental cell line (FIG. 12K).
shRNA-mediated knockdown experiments. Lentiviral production and transduction were carried out as follows. In brief, plasmids from the RNAi Consortium (TRC) collection (TRC construct numbers TRCN0000073838, TRCN0000073839 and TRCN0000073840) were used for targeting NPEPPS were selected based on predicted knockdown efficiency; non-targeting controls used were SHC002 and SHC016. 2 μg of target shRNA construct and 2 μg of 3:1 ratio of psPAX2 (Addgene) and pMD2.G (Addgene) were transfected into HEK293FT cells using 2 μg of Polyethylenimine (Polysciences). Lentiviral particles containing media was filtered using 0.45 μm cellulose acetate syringe filter and used for transduction. Puromycin selection was performed at doses used for CRISPR library screening or in some cases, cells were re-selected with higher doses of puromycin (10 μg/mL), in order to ensure complete elimination of non-transduced cells. Selected cells were frozen at early passage and early passage cells were used for all experiments.
Intracellular cisplatin measurements using CyTOF. Cell lines were cultured for several passages in IMDM+10% FBS. […] After dissociation, cells were counted by Trypan blue staining and then placed in separate tubes at 3×10^5 cells. […] Relative cisplatin intensity (defined by ^195Platinum isotopic mass intensity) was analyzed among nucleated ^191Iridium+^193Iridium+events defined by Boolean gating within FlowJo 10.7.1.

KU1919-GemCis cells = assay: Metabolomics of intracellular taurine; assay type: cell-based, human; settings: KU1919-GemCis cells with knockdown of NPEPPS, 10 μM cisplatin
Experimental: Given that VRACs transport cisplatin and carboplatin and finding NPEPPS in complex with VRAC subunits (FIGS. 4C-4D), NPEPPS may be a negative regulator of VRAC activity, consequently reducing import of intracellular cisplatin. Thus, the impact of NPEPPS on osmolytes known to be transported through VRACs was assessed.
Metabolomics. Sample preparation. Cell lines were cultured for several passages in IMDM+10% FBS (IMDM10). Prior to experiment, cells were cultured in IMDM10 to ˜80% confluence and then dissociated. For dissociation, cells were washed once with room temperature PBS and then incubated with PBS+0.05% Trypsin-EDTA for 10-15 minutes. Cells were neutralized with IMDM10 and then fully dissociated by gentle pipetting. After dissociation, cells were counted by Trypan blue staining and then replated at 1×10^6 cells. 24 hours after plating, cells were treated with either IMDM10 or IMDM10+10 μM cisplatin. Day 0 cell cultures were immediately processed for metabolomics analysis. […] Cells were suspended in PBS, centrifuged a second time, and then resuspended in PBS and counted. […]
Data generation and analysis. […] Supernatants were clarified by centrifugation (10 minutes, 18,000 g, 4° C.) and 10 μL analyzed using a Thermo Vanquish UHPLC coupled to a Thermo Q Exactive mass spectrometer. […]

## N.N.[Cl][Pt][Cl] [cisplatin]
TCCSUP cells; TCCSUP parental cells
  intracellular cisplatin, median Pt 195: 189
TCCSUP cells; TCCSUP-GemCis cells
  intracellular cisplatin, median Pt 195: 22
TCCSUP cells; TCCSUP-GemCis cells, NPEPPS knockdown
  intracellular cisplatin, median Pt 195: 28
KU1919-GemCis cells
  intracellular levels of taurine: reduced even further

Reference: patent publication US20240050392A1, “COMPOSITIONS AND METHODS FOR IMPROVED TREATMENT OF PLATINUM-BASED CHEMOTHERAPEUTIC RESISTANT TUMORS” (THE REGENTS OF THE UNIVERSITY OF THE COLORADO, A BODY …, priority 2021, published 2024)
